Laboratory results reported in patent publication US4746668A, “Method for treating retinopathy” (Daiichi Seiyaku Co., Ltd., priority 1986, dated 1988).
“And” between values parts separate entries of the source, which are not always exact repeats. Equal values may be shown once. Read-outs that look alike come from different tables or passages of the source.

How the values were obtained:
retinal vesseles = conditions: injected into retinal artery of rabbit; cited from earlier work
platelet aggregation = conditions: as disclosed in U.S. Pat. No. 4,138,491; cited from earlier work
[1] = Acute toxicity (LD50) in rats, oral; conditions: rat, in vivo, administered orally
blood glucose level = conditions: as disclosed in U.S. Pat. No. 4,138,491; cited from earlier work
[2] = test system: human whole blood aggregation; assay: Inhibition by Compound A of human whole blood aggregation (Impedance method); format: cell-based
Experimental: (§1) Blood was taken from median cubital vein or cephalic vein of normal men aged of 29 to 40, who had taken no anti-inflammatory drug at least for the last 10 days before testing, into a syringe containing 0.1 volume of 40 U/ml heparin aqueous solution (a product of Green Cross Corp., Japan).
(§2) Compound A was dissolved in a saline, and the solution obtained was used in the experiment.
(§3) As an aggregation inducing agent, an aqueous solution prepared by dissolving epinephrine or a platelet activating factor (hereinafter, PAF) in 25 mM Tris HCl-130 mM NaCl aqueous solution (pH 7.4) was used in the experiment.
(§4) 5 μl of saline solution of Compound A prepared in 1-4 was added to 1 ml of the whole blood, neutrophil suspension or PRP and an electrode was dipped thereinto. The mixture obtained was incubated for 2 minutes under the conditions that the temperature in cell was 37° C. and the stirring rate was 1000 r.p.m., and then 20 μl of aggregation inducing agent was added to the mixture. 4 minutes later, the variation in impedance (Δ.OMEGA.) was determined using Chrono-log aggregometer (540 type, a product of Chrono-log Co., Ltd). The intensity of the variation gave the aggregation activity. In determining the aggregation of neutrophils, 5 μg/ml of cytochalasin B was added to the incubated mixture, one minute prior to the addition of PAF solution. As a control, saline was used instead of saline solution of Compound A and the aggregation was determined as described above.

human neutrophils = assay: Inhibition by Compound A of PAF-induced adhesion-aggregation of human neutrophils (Impedance method); format: cell-based; conditions: Neutrophil, 10 μM Compound A, 0.02 μM, read-out: Inhibition ratio
Experimental: as §1
10 ml of the blood obtained above was mixed with 3 ml of a 4.5% dextran aqueous solution, and the mixture was allowed to stand for 1 hour at room temperature. The supernatant was taken and centrifuged at 250 X g for 7 minutes. The precipitate was taken, and 3 ml of 0.2% sodium chloride aqueous solution was added thereto to lyse the red blood cells. The mixture was allowed to stand for 75 seconds and 7 ml of a 1.2% sodium chloride aqueous solution was added thereto. […] It was confirmed that the surviving ratio of nuetrophil in the resulting suspension was over 95% as determined by the trypan blue staining method. […]
5 μl of saline solution of Compound A prepared in 1-4 was added to 1 ml of the whole blood, neutrophil suspension or PRP and an electrode was dipped thereinto. […] 4 minutes later, the variation in impedance (Δ.OMEGA.) was determined using Chrono-log aggregometer (540 type, a product of Chrono-log Co., Ltd). […] As a control, saline was used instead of saline solution of Compound A and the aggregation was determined as described above.

[3] = test system: human platelet aggregation; assay: Inhibition by Compound A of PAF-induced human platelet aggregation; format: cell-based
Experimental: as §1
The blood obtained in (1) was centrifuged at 190 X g for 7 minutes. The supernatant was taken to obtain the platelets rich plasma (hereinafter, PRP). Platelet counter (a product of Toa Co., Ltd) was used to count the number of platelets.
as §2, §3, §4

diabetic retinopathy = assay: Clinical trial in patients having diabetic retinopathy, funduscopic observation; format: in vivo, human; parameters: key to Funduscopic observation: microaneurysms / Funduscopic observation: dot hemorrhage: +: observed; ±: slightly observed; -: not observed; conditions: 300 to 900 mg daily orally; for Funduscopic observation: microaneurysms / Funduscopic observation: dot hemorrhage: + + at start
Experimental: Compound A was administered orally at dose of 300 to 900 mg daily to patients having diabetic retinopathy for a period of a month to about 2 years. Microaneurysms, dot hemorrhage, retina edema, hard exudate, arterialization and maculopathy in Fundus oculi, which were indications for retinopathy, were investigated using a funduscope.

[4] = test system: human neutrophil aggregation; assay: Inhibition by Compound A of PAF-induced human neutrophil aggregation (Optical method); format: cell-based
Experimental: as §1
10 ml of the blood obtained above was mixed with 3 ml of a 4.5% dextran aqueous solution, and the mixture was allowed to stand for 1 hour at room temperature. The supernatant was taken and centrifuged at 250 X g for 7 minutes. The precipitate was taken, and 3 ml of 0.2% sodium chloride aqueous solution was added thereto to lyse the red blood cells. The mixture was allowed to stand for 75 seconds and 7 ml of a 1.2% sodium chloride aqueous solution was added thereto. The mixture was centrifuged at 250 X g for 7 minutes to obtain the precipitate which contained mainly neutrophils. When the red blood cell was not sufficiently removed, the above procedure for lysis of red blood cell was repeated. The precipitate was washed with 10 ml of a phosphate buffer solution containing 0.5% glucose (hereinafter, PBSG), and the mixture was centrifuged at 250 X g for 7 minutes to take the precipitate. The above washing procedure was repeated twice, and the precipitate obtained was added to PBSG or PBSG containing 0.5% human serum albumin to obtain the neutrophil suspension. It was confirmed that the surviving ratio of nuetrophil in the resulting suspension was over 95% as determined by the trypan blue staining method. A blood cell counter (a product of Nihon Koden Co., Ltd) was used to count the number of neutrophils. The mixture was preserved at 4° C. before use. […]
5 μl of saline solution of Compound A prepared in 1-4) was added to 1 ml of neutrophil suspension and the mixture was incubated for 2 minutes under the conditions that the temperature in cell was 37° C. and the stirring rate was 1,000 r.p.m. […] The aggregation was determined optically using the Chrono-log aggregometer. As a control, saline was used instead of saline solution of Compound A and the aggregation was determined as described above.

[5] = patient B, left eye, 116 weeks after administration
[6] = patient B, right eye, 116 weeks after administration

For `CCCCCCCCCCCCCCCCOCC(COP(=O)([O-])OCC[N+](C)(C)C)OC(C)=O` (stereo not drawn) [PAF], the “state of retinal vessels” value (retinal vesseles) is listed as “a sludge-like state is observed in retinal vesseles”.
In the case of `c1ccc(C(CC2=NCCN2)c2ccccn2)cc1` (stereo not drawn) [Compound A, 2-(2-phenyl-2-(2-pyridyl))ethyl-2-imidazoline], the “platelet aggregation” value (platelet aggregation) is listed as “inhibits platelet aggregation”, the LD50 [1] is listed as 867 mg/kg and the “blood glucose level” value (blood glucose level) is listed as “reduces the blood glucose level”. The IC50 ([2]; Homo sapiens, in vitro, Epinephrine (2 μM), individual values of n = 3, read-out: IC50) was 5.6 µM, the IC50 ([2]; Homo sapiens, in vitro, Epinephrine (2 μM), n = 3, read-out: IC50, average ± s.d.) was 5.2 ± 0.7 µM and the IC50 ([2]; Homo sapiens, induced by PAF (0.02 μM), n=3, read-out: IC50, average) was 2.8 µM. The IC50 ([2]; Homo sapiens, induced by epinephrine (2 μM), n=3, read-out: IC50) was ~5 µM, the IC50 ([2]; in vitro, Epinephrine (2 μM), individual values of n = 3, read-out: IC50) was 4.2 µM and 5.8 µM and the IC50 ([2]; in vitro, PAF (0.02 μM), individual values of n = 3, read-out: IC50) was 1.8 µM and 4.6 µM. The inhibition at 10 µM (human neutrophils) was 59%, the inhibition at 10 µM ([3]; Homo sapiens, Platelet, 10 μM Compound A, PAF, 2 μM, read-out: Inhibition ratio) was 0% and the inhibition at 50 µM ([3]; Homo sapiens, Platelet, 50 μM Compound A, PAF, 2 μM, read-out: Inhibition ratio) was 45%. For the same compound, the inhibition at 100 µM ([3]; Homo sapiens, Platelet, 100 μM Compound A, PAF, 2 μM, read-out: Inhibition ratio) was 82%, the “PAF-induced human platelet aggregation” value ([3]; low versus high concentration) was “did not inhibit PAF-induced human platelet aggregation at a low concentration but did at a high concentration” and the “microaneurysms and dot hemorrhage” value (diabetic retinopathy; 3 patients) was “disappearance or reduction of microaneurysms and dot hemorrhage were observed”. For the same compound, the “Funduscopic observation: microaneurysms” value (diabetic retinopathy; patient A, left eye, 58 weeks after administration) was “-”, the “Funduscopic observation: microaneurysms” value (diabetic retinopathy; patient A, right eye, 58 weeks after administration) was “-” and the “Funduscopic observation: dot hemorrhage” value (diabetic retinopathy; [5]) was “-”. The “Funduscopic observation: microaneurysms” value (diabetic retinopathy; [5]) was “-”, the “Funduscopic observation: dot hemorrhage” value (diabetic retinopathy; [6]) was “-” and the “Funduscopic observation: microaneurysms” value (diabetic retinopathy; [6]) was “-”. For the same compound, the “Funduscopic observation: dot hemorrhage” value (diabetic retinopathy; patient C, left eye, 109 weeks after administration) was “±”, the “Funduscopic observation: dot hemorrhage” value (diabetic retinopathy; patient C, right eye, 109 weeks after administration) was “±” and the inhibition at 5 µM ([4]; Homo sapiens, Neutrophil, 5 μM Compound A, PAF, 2 μM, optical method, read-out: inhibition ratio) was 68%. The inhibition at 10 µM ([4]; Homo sapiens, Neutrophil, 10 μM Compound A, PAF, 2 μM, optical method, read-out: inhibition ratio) was 83% and the “PAF-induced human neutrophil aggregation” value ([4]; at low concentration) was “inhibited the PAF-induced human neutrophil aggregation at low concentration”.
